Laboratory results published in PubChem BioAssay (NCI).
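96-well plates; 48 h exposure; 5 concentrations. Endpoints by linear interpolation between flanking doses. Not reached: highest tested concentration assigned. Here, GI50 denotes the concentration required for 50% inhibition of growth. TGI: total growth inhibition.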

Columns and labels:
Assay in all cases: NCI tumour cell line growth inhibition, 48 h
[1] = system: M14 melanoma
[2] = system: SF-295 CNS
[3] = system: SN12C renal
[4] = system: A498 renal
[5] = system: ACHN renal
[6] = system: HCT-15 colon
[7] = system: NCI-H522 lung
[8] = system: HOP-92 NSCLC
[9] = system: SK-MEL-2 melanoma
[10] = system: HS 578T breast

In the case of `O=Cc1cn(S(=O)(=O)c2ccccc2)c2ccccc12`, the TGI [1] is reported as > 100 µM, the TGI [2] is reported as > 100 µM and the TGI [3] is reported as > 100 µM. For the same compound, the TGI [4] was > 100 µM, the TGI [5] was > 100 µM and the TGI [6] was > 100 µM.
`Cn1c2c(c3ccccc31)CCN(CCCN1CCN(c3ccccc3)CC1)C2=O` gave a TGI [1] of 37 µM, a TGI [2] of 37.8 µM and a TGI [7] of 30.9 µM. For the same compound, the TGI [3] was 46.7 µM, the TGI [8] was 31.7 µM and the TGI [4] was 32.8 µM. It also gave a TGI [5] of 44.7 µM and a TGI [6] of 50 µM.
`CSCC(COC(C)=O)(CSC)c1ccncc1` was tested, and the TGI [1] was > 100 µM, the TGI [9] was > 100 µM and the TGI [2] was > 100 µM. The TGI [7] was > 100 µM, the TGI [3] was > 100 µM and the TGI [4] was > 100 µM. The TGI [5] was > 100 µM and the TGI [6] was > 100 µM.
In the case of `COc1cc([C@@H]2c3cc4c(cc3[C@@H](NC(=O)c3ccc(OC(C)=O)cc3)C3COC(=O)[C@@H]32)OCO4)cc(OC)c1O` (stereo not given in full), the TGI [1] is reported as 9.22 µM, the TGI [9] is reported as 16.6 µM and the TGI [2] is reported as 50.9 µM. The TGI [7] was 4.37 µM, the TGI [3] was 4.05 µM and the TGI [8] was 7.05 µM. The TGI [4] was 8.75 µM, the TGI [5] was 3.16 µM and the TGI [6] was 24.4 µM.
In the case of `COc1cc(OC)c(/C=C/C(=O)c2c(O)cc(OC)c(C3CCN(C)CC3)c2OC)c(OC)c1`, the GI50 [1] is reported as 1.67 µM, the TGI [1] is reported as 3.05 µM and the GI50 [9] is reported as 1.78 µM. For the same compound, the TGI [9] was 3.24 µM, the GI50 [2] was 1.56 µM and the TGI [2] was 2.98 µM. For the same compound, the GI50 [7] was 1.86 µM, the TGI [7] was 3.31 µM and the GI50 [10] was 1.81 µM. The TGI [10] was 4.29 µM, the GI50 [4] was 1.6 µM and the TGI [4] was 3.02 µM. For the same compound, the GI50 [5] was 1.58 µM, the TGI [5] was 2.98 µM and the GI50 [6] was 1.31 µM. It also gave a TGI [6] of 2.8 µM.
For `c1ccc(N2N=NC3C4CC(C5c6ccccc6C45)C32)cc1` (stereo not given), the TGI [1] was > 100 µM, the TGI [2] was > 100 µM and the TGI [7] was 50.9 µM. For the same compound, the TGI [3] was > 100 µM, the TGI [8] was 54.6 µM and the TGI [4] was > 100 µM. The TGI [6] was > 100 µM.
`C/C(CC(=O)Nc1cccc(C)c1C)=N\NC(N)=S` was tested, and the TGI [1] was > 100 µM, the TGI [9] was > 100 µM and the TGI [2] was > 100 µM. The TGI [7] was > 100 µM, the TGI [3] was > 100 µM and the TGI [8] was > 100 µM. For the same compound, the TGI [4] was > 100 µM, the TGI [5] was > 100 µM and the TGI [6] was > 100 µM.
In the case of `C1C[S][Ge]2([S]CCS1)[S]CCSCC[S]2`, the GI50 [1] is reported as > 100 µM, the TGI [1] is reported as > 100 µM and the GI50 [9] is reported as > 100 µM. The TGI [9] was > 100 µM, the GI50 [7] was > 100 µM and the TGI [7] was > 100 µM. For the same compound, the GI50 [3] was > 100 µM, the TGI [3] was > 100 µM and the GI50 [8] was > 100 µM. The TGI [8] was > 100 µM, the GI50 [4] was > 100 µM and the TGI [4] was > 100 µM. The GI50 [5] was > 100 µM, the TGI [5] was > 100 µM and the GI50 [6] was > 100 µM. The TGI [6] was > 100 µM.
For `C=CCCCC(O)c1ccc(C(O)c2cnc3ccccc3c2)o1` (stereo not given), the GI50 [1] was 19.6 µM, the TGI [1] was 41.3 µM and the GI50 [9] was 34.1 µM. For the same compound, the TGI [9] was > 100 µM, the GI50 [2] was 35.6 µM and the TGI [2] was > 100 µM. For the same compound, the GI50 [7] was 28.4 µM, the TGI [7] was > 100 µM and the GI50 [3] was 30.9 µM. The TGI [3] was 90.9 µM, the GI50 [8] was 60.1 µM and the TGI [8] was > 100 µM. The GI50 [10] was 22.3 µM, the TGI [10] was > 100 µM and the GI50 [5] was 25.4 µM. The TGI [5] was 61.6 µM, the GI50 [6] was 31.4 µM and the TGI [6] was > 100 µM.
With `COC(=O)Cc1nn2c(nc1=O)sc1ccc3ccccc3c12` the TGI [1] was > 100 µM, the TGI [9] was > 100 µM and the TGI [7] was > 100 µM. For the same compound, the TGI [3] was > 100 µM, the TGI [8] was > 100 µM and the TGI [4] was > 100 µM. For the same compound, the TGI [5] was > 100 µM and the TGI [6] was > 100 µM.
For `CC(O)c1ccc(C(O)/C(=N\NC(=O)c2ccncc2)c2nc3ccc([N+](=O)[O-])cc3[nH]c2=O)cc1` (stereo not given), the TGI [1] was > 100 µM, the TGI [2] was > 100 µM and the TGI [7] was > 100 µM. For the same compound, the TGI [3] was > 100 µM, the TGI [8] was > 100 µM and the TGI [5] was > 100 µM. The TGI [6] was > 100 µM.
For `CC(C)=Cc1cc(C(=O)NCCNC(=O)c2cc(C=C(C)C)nc(NC#N)n2)nc(NC#N)n1`, the TGI [1] was > 100 µM, the TGI [2] was > 100 µM and the TGI [7] was > 100 µM. For the same compound, the TGI [3] was > 100 µM, the TGI [8] was > 100 µM and the TGI [4] was > 100 µM. The TGI [5] was > 100 µM and the TGI [6] was > 100 µM.
`COC(=O)[C@H](C)[C@@H]1CC[C@](C)(CCC2=C(C)CCCC2(C)C)OO1` was tested, and the TGI [1] was > 25 µM, the TGI [9] was > 25 µM and the TGI [2] was > 25 µM. For the same compound, the TGI [7] was > 25 µM, the TGI [3] was > 25 µM and the TGI [8] was > 25 µM. For the same compound, the TGI [10] was > 25 µM, the TGI [5] was > 25 µM and the TGI [6] was > 25 µM.
With `COc1ccc2c(c1)CC1N(C)CCC13CCCCC23` (stereo not given) the TGI [1] was > 100 µM, the TGI [9] was > 100 µM and the TGI [2] was > 100 µM. For the same compound, the TGI [7] was > 100 µM, the TGI [3] was > 100 µM and the TGI [8] was > 100 µM. The TGI [10] was > 100 µM, the TGI [5] was > 100 µM and the TGI [6] was > 100 µM.
For `COC(=O)c1cc2c(nc1C)-c1ccccc1OS2(=O)=O`, the TGI [1] was > 100 µM, the TGI [2] was > 100 µM and the TGI [7] was > 100 µM. The TGI [3] was > 100 µM, the TGI [8] was 83.2 µM and the TGI [4] was > 100 µM. The TGI [5] was > 100 µM and the TGI [6] was > 100 µM.
For `Cc1cc(N(CCC#N)CCC#N)ccc1CC1N=C(c2ccccc2)OC1=O` (stereo not given), the TGI [1] was > 100 µM, the TGI [9] was > 100 µM and the TGI [2] was > 100 µM. For the same compound, the TGI [7] was > 100 µM, the TGI [3] was > 100 µM and the TGI [8] was > 100 µM. For the same compound, the TGI [4] was > 100 µM, the TGI [5] was > 100 µM and the TGI [6] was > 100 µM.
For `COc1ccc(NC(=O)C2=CC(=O)c3ccc(O)cc3C2=O)c(OC)c1`, the TGI [1] was > 100 µM, the TGI [2] was > 100 µM and the TGI [3] was > 100 µM. For the same compound, the TGI [8] was > 100 µM, the TGI [4] was > 100 µM and the TGI [5] was > 100 µM. For the same compound, the TGI [6] was > 100 µM.
With `C=CCn1c(=O)c(C(=O)NC(=O)OCC)cn(C2CCCCC2)c1=O` the TGI [1] was > 100 µM, the TGI [9] was > 100 µM and the TGI [2] was > 100 µM. The TGI [3] was > 100 µM, the TGI [8] was > 100 µM and the TGI [4] was > 100 µM. The TGI [5] was > 100 µM and the TGI [6] was > 100 µM.
For `O=c1[nH]c(-c2ccc([N+](=O)[O-])cc2)nc2ccc(Cl)cc12`, the TGI [9] was > 100 µM, the TGI [2] was > 100 µM and the TGI [3] was > 100 µM. The TGI [8] was 84.2 µM, the TGI [5] was > 100 µM and the TGI [6] was > 100 µM.
`CCOC(=O)Cn1c(=O)[nH]c(=O)c2[nH]cnc21` was tested, and the TGI [1] was > 100 µM, the TGI [9] was > 100 µM and the TGI [7] was > 100 µM. The TGI [3] was > 100 µM, the TGI [4] was > 100 µM and the TGI [5] was > 100 µM. For the same compound, the TGI [6] was > 100 µM.
`CCOC(=O)CP(=S)(S)c1ccccc1` (stereo not given) was tested, and the TGI [9] was > 100 µM, the TGI [7] was > 100 µM and the TGI [3] was > 100 µM. The TGI [8] was > 100 µM, the TGI [4] was > 100 µM and the TGI [5] was > 100 µM.
`O=C1NC(Cc2ccccc2)C(=O)N2CCCC12` (stereo not given) was tested, and the TGI [1] was > 100 µM, the TGI [9] was > 100 µM and the TGI [2] was > 100 µM. For the same compound, the TGI [7] was > 100 µM, the TGI [3] was > 100 µM and the TGI [8] was > 100 µM. For the same compound, the TGI [4] was > 100 µM, the TGI [5] was > 100 µM and the TGI [6] was > 100 µM.
For `NNC(=S)NN/C=C(\C=Nc1ccccc1)[N+](=O)[O-]`, the TGI [1] was > 100 µM, the TGI [9] was > 100 µM and the TGI [2] was > 100 µM. The TGI [7] was > 100 µM, the TGI [3] was > 100 µM and the TGI [8] was > 100 µM. The TGI [5] was > 100 µM.
